Consider 7 compounds from US10814006B2, “Fluorescent prodrugs” (UNIVERSITY OF IOWA RESEARCH FOUNDATION, priority 2015, dated 2020).

The subject of one series is Daudi cells. In words: Proliferation assay, Daudi cells (CellQuantiBlue). Type of series: cell-based. The conditions noted are these: 72 hours; for IC50: Daudi cells, QB assay. The method, then: (§1) K562 cells were cultured in fresh K562 media (RPMI-1640, 10% heat-inactivated Fetalclone III, 1× penicillin/streptomycin). Daudi and RPMI-8226 cells were cultured in fresh Daudi/RPMI media (RPMI-1640, 10% heat-inactivated FBS, 1× penicillin/streptomycin). Gamma delta T cells were cultured as described previously. Briefly, cells were expanded from peripheral blood mononuclear cells in fresh T cell media (RPMI-1640, 10% heat-inactivated FBS, 1× HEPES, pyruvate, non-essential amino acids, penicillin/streptomycin, beta-mercaptoethanol) and added to 6-well plates. Cells were stimulated with test compounds for three days at concentrations indicated in the text. Cells were washed twice then cultured for another eleven days after compound removal. Human interleukin 2 (5 ng/mL) was supplemented every three days. Experiments were performed at least three times independently using at least two different blood donors.
(§2) To assess K562 proliferation, 10000 cells/well were added to 96-well plates in 100 μL K562 media in the presence of test compounds. Similarly, experiments with Daudi cells were initiated at 5000 cells/well and RPMI8226 cells initiated at 6000 cells/well. The cell concentrations were determined by prior dose response experiments to maximize proliferation rates. Cells were allowed to proliferate for 72 hours. During the last 2 hours, cells were labeled with 10 μL of CellQuantiBlue reagent and scanned with a Victor plate reader.

Series [1] concerns K562 cells. Description: Proliferation assay, K562 cells (CellQuantiBlue). The conditions noted are these: 72 hours; for IC50: K562 cells, QB assay. Type of series: cell-based. On the procedure: as §1, §2
A further series deals with Jurkat cells. In words: Proliferation assay, Jurkat cells (CellQuantiBlue). The format is cell-based. The note with it: 72 hours; for IC50: Jurkat cells, QB assay. On the procedure: [Worded in the source for another cell line; this cell line is reported under the same test.] as §2
The test system of another series is RPMI-8226 cells. In words: Proliferation assay, RPMI-8226 cells (CellQuantiBlue). The format is cell-based. The conditions noted are these: 72 hours; for IC50: RPMI-8226 cells, QB assay. The method, then: as §1, §2
Series [2] relates to primary human gamma delta T cells (Vγ9Vδ2 T cells). The note with it: cited from earlier work.
Series [3] in a line: pH dependence of fluorescence intensity. The format is physicochemical. The conditions noted are these: aqueous solutions, pH 6 vs pH 3. The text has this: The use of the MOCCA prodrugs as probes with which to determine rates of biological deprotection (FIG. 4) was examined. All three compounds were readily detected by spectrophotometry with excitation maxima of 360 nm and emission maxima of 410 nm in aqueous solutions. Importantly, the fluorescence intensity of the free MOCCA group was strongly dependent upon pH of the solvent (FIG. 4A), correlating with the expected protonation of the carboxylic acid. At pH 6 the intensity of the free MOCCA group was less than 10% of its intensity at pH 3. At the same time, the fluorescence intensity of the MOCCA prodrugs was not pH dependent. Taken together, the MOCCA prodrugs would be expected to rapidly lose fluorescence intensity during metabolism at neutral pH, as the free MOCCA group is released from the prodrug and remains in the deprotonated form.

Series [4] deals with primary human gamma delta T cells (Vγ9Vδ2 T cells). Description: Gamma delta T cell expansion from PBMCs. Type of series: cell-based. The conditions noted are these: for EC50: 72 hours treatment; for gamma delta T cell agonist activity: PBMCs, CD3 and gamma delta TCR surface staining. The method, then:
as §1
Total gamma delta TCR was labeled using FITC-anti-human Pan gamma delta TCR antibody and CD3 was labeled using PE-conjugated anti-human CD3 as described.
The MOCCA prodrugs were also evaluated in a functional assay of their ability to stimulate proliferation of primary human gamma delta T cells. Dose response experiments were performed with the experimental compounds—MOCCA-Me-C-HMBP and MOCCA-POM-C-HMBP. POM-Me-C-HMBP, POM2-C-HMBP, Me-C-HMBP, C-HMBP or HMBPP were used as positive controls. Unstimulated cells were used as a negative control. Cells were treated for 72 hours with test compounds, washed, then expanded for 11 additional days prior to quantification to assess proliferation.

Series [5] has as its system K562 cells. In words: Quantification of cellular uptake in K562 cells. Type of series: cell-based. The note with it: K562 cells in PBS, 10 μM. On the procedure:
(§3) Compounds were exposed to PBS, K562 cells in PBS, or 50% pooled human plasma in PBS. K562 cells were used at a concentration of 1 million per mL. The fluorescence was detected using a Victor X5 plate reader with excitation at 355 nm and emissions at 405. Compounds were mixed with each biological matrix to a final concentration of 10 μM on ice. A baseline reading was measured. Compounds were incubated for one hour at 37° C. and subsequent readings were taken every 15 minutes.
The compounds were then used to examine rates of internalization into K562 cells. […] That is, within hours, effectively all of the drug can pass through the cells.

Series [6] in a line: Plasma metabolism by thin layer chromatography. Type of series: in vitro ADME. The note with it: human plasma. The method, then: Compounds were exposed to cells, plasma, media, or PBS as indicated in the text in 100 μL volumes. Compounds were extracted from all biological mixtures using 200 μL of organic solvent containing 95% dichloromethane, 5% ethanol, and 0.25% glacial acetic acid. Extracts were separated by normal phase […] using 95% dichloromethane, 5% ethanol, and 0.25% glacial acetic acid as the mobile phase. Compounds were visualized under UV light.
(§4) The prodrugs and the MOCCA protecting group were stable in PBS (FIG. 5A). […] The half-life was determined to be 7 minutes in this assay. […] In order to confirm that the loss of fluorescence of MOCCA-Me-C-HMBP was indeed due to hydrolysis of the MOCCA-phosphonate ester, the end products were extracted and analyzed by thin layer chromatography. MOCCA-Me-C-HMBP was fully hydrolyzed to yield the free MOCCA group in the presence of human plasma within 40 minutes (FIG. 5D). Loss of the prodrug occurred at the same time as the appearance of the MOCCA free acid.

Series [7] can be described thus: Plasma metabolism by loss of fluorescence (spectrophotometry). The format is in vitro ADME, human. The method, then: as §3
This assay was then adapted to a 384-well-plate format for use in a plate reader equipped with a 355/40 nm excitation filter and a 405/10 nm emission filter. As expected, the fluorescence intensity of MOCCA-Me-C-HMBP in PBS was much higher than that of the free MOCCA group in PBS (FIG. 4B). Additionally, the fluorescence of the free MOCCA group was further reduced when incubated in human plasma (FIG. 4C). […] Therefore, the esterase-mediated hydrolysis of MOCCA-Me-C-HMBP could be readily assessed by quantification of the two-step (release followed by quenching) loss of fluorescence following exposure to various biological matrices.
as §4

Where [8] appears, read: Reference: Hsiao et al., read-out: EC50 for T cell expansion.
Where [9] appears, read: dose response curves, read-out: EC50, gamma delta T cell proliferation.

SMILES strings stand for the structures. “Also recorded” adds a separate entry of the source. Where two headings read alike, the source gives them in different places. Some results are limits rather than exact numbers.

In general, IC50 refers to the concentration that gives 50% inhibition. `C/C(=C\CCP(=O)(O)O)CO` [C-HMBP]: the concentration for half-maximal inhibition (IC50) in the series on Daudi cells, with K562 cells [1], with Jurkat cells and in the series with RPMI-8226 cells was greater than 100 µM throughout. In addition, the EC50 in [2] (setting [8]) is 4 µM.

On to `COc1ccc2cc(C(=O)O)c(=O)oc2c1` [MOCCA (1), 7-Methoxy-2-oxo-2H-chromene-3-carboxylic acid], for which the “cellular toxicity, Daudi” value with Daudi cells (concentrations up to 100 μM) is “no cellular toxicity”. The IC50 in the series with Daudi cells (Homo sapiens), in the series on K562 cells [1] (Homo sapiens), with Jurkat cells (Homo sapiens) and in the series with RPMI-8226 cells (Homo sapiens) was greater than 100 µM each time. Moreover, in the series on K562 cells [1] (concentrations up to 100 μM), the “cellular toxicity, K562” value is on record as “no cellular toxicity”. Besides, the “cellular toxicity, Jurkat” value with Jurkat cells (concentrations up to 100 μM) is recorded as “no cellular toxicity”. Also, in the series on RPMI-8226 cells (concentrations up to 100 μM), the “cellular toxicity, RPMI-8226” value is reported as “no cellular toxicity”. Besides, the “fluorescence intensity at pH 6 relative to intensity at pH 3” value in [3] is “less than 10%”.

Broadly, the half-life is the time in which the quantity being followed falls by half. With `COc1ccc2cc(C(=O)OCOP(=O)(CC/C=C(\C)CO)OC)c(=O)oc2c1` (stereo not drawn) [MOCCA-Me—C-HMBP (5)], the IC50 is greater than 100 µM with Daudi cells (Homo sapiens), greater than 100 µM in the series on K562 cells [1] (Homo sapiens), greater than 100 µM in the series on Jurkat cells (Homo sapiens) and 64 µM in the series on RPMI-8226 cells (Homo sapiens). Also, the EC50 in series [4] (Homo sapiens, T-cell, 11 additional days expansion, Reference: none, read-out: EC50 for T cell expansion) is 0.018 µM; in series [4] (Homo sapiens, T-cell, dose response curves, read-out: EC50, gamma delta T cell proliferation) it was 0.018 µM. The “gamma delta T cell agonist activity” value in series [4] is “functioned as a gamma delta T cell agonist; also recorded: potent gamma delta T cell agonist”. For the same compound, the “increase in activity of the MOCCA protected compound over Me-C-HMBP” value in series [4] (ratio of EC50 values) was determined as 1300 fold. In addition, in the series with K562 cells [5], the “cellular uptake / cellular metabolism in K562 cells” value is listed as “faster than that of MOCCA-POM-C-HMBP”. Further, in series [6], the “time to full hydrolysis to the free MOCCA group” value was no more than 40 min. In addition, the half-life in series [6] (read-out: half-life of enzymatic release) came out at 7.8 min. For the same compound, in series [7] (50% human plasma in PBS, spectrophotometry), the “order of decay kinetics in plasma” value is given as 2nd order kinetics. Besides, the half-life at 10 μM in series [7] (50% pooled human plasma in PBS, 50% human plasma in PBS, spectrophotometry) amounted to 7 min. Also, in series [7] (human plasma), the “relative rate of plasma metabolism” value is “metabolized more rapidly relative to the bulkier MOCCA-POM-C-HMBP”.

For the compound `COc1ccc2cc(C(=O)OCOP(=O)(CC/C=C(\C)CO)OCOC(=O)C(C)(C)C)c(=O)oc2c1` (stereo not drawn) [MOCCA-POM (9)], the half-maximal inhibitory concentration (IC50) is 56 µM in the series with Daudi cells, greater than 100 µM in the series with K562 cells [1], 53 µM with Jurkat cells and 43 µM with RPMI-8226 cells. Also, the “gamma delta T cell agonist activity” value in series [4] is “functioned as a gamma delta T cell agonist”. For the same compound, in [4] (setting [9]), the EC50 was 0.0039 µM.

As to `C1CN2CCN1CC2.COP(=O)(O)CC/C=C(\C)CO` [Me—C-HMBP (4)], the 50% inhibitory concentration (IC50) with Daudi cells, in the series with K562 cells [1], in the series on Jurkat cells and in the series with RPMI-8226 cells was greater than 100 µM throughout. Moreover, the EC50 in series [4] (setting [9]) was determined as 23 µM.

Turning to `C/C(=C\CCP(=O)(OCOC(=O)C(C)(C)C)OCOC(=O)C(C)(C)C)CO` [POM2-C-HMBP (7)], the IC50 is 58 µM with Daudi cells, greater than 100 µM with K562 cells [1], greater than 100 µM in the series on Jurkat cells and 44 µM with RPMI-8226 cells. The EC50 in [2] (published value, unit inferred, read-out: published EC50 value, gamma delta T cell proliferation) is 0.0054 µM.

For the compound `COP(=O)(CC/C=C(\C)CO)OCOC(=O)C(C)(C)C` (stereo not drawn) [POM-Me—C-HMBP], the IC50 in the series with Daudi cells, with K562 cells [1], with Jurkat cells and in the series with RPMI-8226 cells was greater than 100 µM in each case. Besides, the “gamma delta T cell agonist activity” value in series [4] was “not statistically different from that of POM-Me-C-HMBP”. The EC50 was 0.52 µM in [2] (setting [8]) and 0.5 µM in [2] (published value, Hsiao et al. 2014, read-out: published EC50, gamma delta T cell proliferation).
